Tests used:
[1] = target: Receptor tyrosine-protein kinase erbB-2 (Homo sapiens, UniProt P04626, R896C); assay: Inhibition of HER2 R896C mutant (unknown origin) incubated for 120 mins in presence of 33P-ATP by P81 ion exchange cellulose chromatography
[2] = AUC (0 to t) in cynomolgus monkey at 15 mg/kg, po measured upto 1440 mins by LC/MS/MS analysis; type: ADME, organism-based, Macaca fascicularis; set-up: time < 1440 min, dose 15 mg/kg, route po; details: in vivo
[3] = Tmax in ICR mouse at 10 mg/kg, po measured upto 1440 mins by LC/MS/MS analysis; type: ADME, organism-based; details: in vivo
[4] = test system: NCI-H441; assay: Antiproliferative activity against human NCI-H441 cells assessed as cell growth inhibition incubated for 72 hrs by Celltiter-Glo assay; type: functional, cell-based; details: NCI-H441, 72 h
[5] = test system: BT-474; assay: Antitumor activity against human BT-474 cells xenografted in BALB/c nude mouse assessed as tumor growth inhibition by measuring relative tumor growth at 10 mg/kg/day, po administered once daily for 21 days by caliper method relative to control; type: functional; details: time 21 day
[6] = test system: BaF3; assay: Antitumor activity against mouse BaF3 cells harbouring HER2 A775_G776insYVMA mutant xenografted in BALB/c nude mouse assessed as tumor growth inhibition by measuring relative tumor growth at 10 mg/kg, po qd for 13 days by caliper method relative to control; type: functional; details: time 13 day
[7] = Volume of distribution at steady state in ICR mouse at 3 mg/kg, iv measured upto 1440 mins by LC/MS/MS analysis; type: ADME, organism-based; details: in vivo, read-out: Vdss
[8] = test system: NCI-N87; assay: Antitumor activity against human NCI-N87 cells xenografted in BALB/c nude mouse assessed as tumor growth inhibition by measuring relative tumor growth at 10 mg/kg/day, po administered once daily for 21 days by caliper method relative to control; type: functional; details: time 21 day
[9] = test system: BT-474; assay: Antitumor activity against human BT-474 cells xenografted in BALB/c nude mouse assessed as tumor growth inhibition by measuring relative tumor growth at 5 mg/kg/day, po administered once daily for 21 days by caliper method relative to control; type: functional; details: time 21 day
[10] = test system: BT-474; assay: Antiproliferative activity against human BT-474 cells assessed as inhibition of cell growth incubated for 72 hrs by Celltiter-Glo assay; type: functional, cell-based; details: BT-474, 72 h
[11] = Metabolic stability in human liver microsomes assessed as intrinsic clearance at 1 uM preincubated for 5 mins followed by NADPH addition by LC-MS/MS analysis; type: ADME, Microsome; details: read-out: CLH
[12] = test system: BaF3; assay: Antiproliferative activity against mouse BaF3 cells harbouring HER2 […] mutant assessed as inhibition of cell growth incubated for 72 hrs by Celltiter-Glo assay; type: functional, cell-based; details: BaF3, 72 h
[13] = test system: ES-2; assay: Antiproliferative activity against human ES2 cells assessed as cell growth inhibition incubated for 72 hrs by Celltiter-Glo assay; type: functional, cell-based; details: ES-2, 72 h
[14] = Oral bioavailability in cynomolgus monkey at 15 mg/kg measured upto 1440 mins by LC/MS/MS analysis; type: ADME, organism-based, Macaca fascicularis; details: in vivo
[15] = test system: MDA-MB-468; assay: Antiproliferative activity against human MDA-MB-468 cells overexpressing wild type EGFR assessed as cell growth inhibition incubated for 72 hrs by Celltiter-Glo assay; type: functional, cell-based; details: MDA-MB-468, 72 h
[16] = test system: BaF3; assay: Antitumor activity against mouse BaF3 cells harbouring HER2 A775_G776insYVMA xenografted in BALB/c nude mouse assessed as tumor growth inhibition at 10 mg/kg/day, po qd measured for 13 days relative to control; type: functional; details: BaF3, 312 h, time 13 day, read-out: TGI
[17] = target: Receptor tyrosine-protein kinase erbB-2 (Homo sapiens, UniProt P04626, D769Y); assay: Inhibition of HER2 D769Y mutant (unknown origin) incubated for 120 mins in presence of 33P-ATP by P81 ion exchange cellulose chromatography
[18] = test system: SK-BR-3; assay: Antiproliferative activity against human SK-BR-3 cells overexpressing wild type HER2 assessed as cell growth inhibition incubated for 72 hrs by Celltiter-Glo assay; type: functional, cell-based; details: SK-BR-3, 72 h
[19] = test system: BaF3; assay: Antitumor activity against mouse BaF3 cells harbouring HER2 A775_G776insYVMA mutant xenografted in BALB/c nude mouse assessed as tumor growth inhibition by measuring relative tumor growth at 20 mg/kg, po qd for 13 days by caliper method relative to control; type: functional; details: time 13 day
[20] = Clearance in ICR mouse at 3 mg/kg, iv measured upto 1440 mins by LC/MS/MS analysis; type: ADME, organism-based; details: in vivo
[21] = test system: COLO-678; assay: Antiproliferative activity against human COLO-678 cells assessed as cell growth inhibition incubated for 72 hrs by Celltiter-Glo assay; type: functional, cell-based; details: COLO-678, 72 h
[22] = test system: NUGC-4; assay: Antiproliferative activity against human NUGC-4 cells assessed as cell growth inhibition incubated for 72 hrs by Celltiter-Glo assay; type: functional, cell-based; details: NUGC-4, 72 h
[23] = Oral bioavailability in Sprague-Dawley rat at 10 mg/kg measured upto 1440 mins by LC/MS/MS analysis; type: ADME, organism-based; details: in vivo
[24] = test system: BT-474; assay: Antitumor activity against human BT-474 cells xenografted in BALB/c nude mouse assessed as tumor growth inhibition at 20 mg/kg/day, po administered once daily for 21 days relative to control; type: functional; details: BT-474, 504 h, time 21 day, read-out: TGI
[25] = Half life in Sprague-Dawley rat at 10 mg/kg, po measured upto 1440 mins by LC/MS/MS analysis; type: ADME, organism-based; details: in vivo
[26] = target: Receptor tyrosine-protein kinase erbB-2 (Homo sapiens, UniProt P04626, V777L); assay: Inhibition of HER2 V777L mutant (unknown origin) incubated for 120 mins in presence of 33P-ATP by P81 ion exchange cellulose chromatography
[27] = test system: NCI-N87; assay: Antitumor activity against human NCI-N87 cells xenografted in BALB/c nude mouse assessed as tumor growth inhibition by measuring relative tumor growth at 20 mg/kg/day, po administered once daily for 21 days by caliper method relative to control; type: functional; details: time 21 day
[28] = test system: BT-474; assay: Antitumor activity against human BT-474 cells xenografted in BALB/c nude mouse assessed as tumor growth inhibition by measuring relative tumor growth at 20 mg/kg/day, po administered once daily for 21 days by caliper method relative to control; type: functional; details: time 21 day

Receptor tyrosine-protein kinase erbB-2 (Homo sapiens, UniProt P04626, R896C), sequence (P04626 23-1255 R896C limits assumed): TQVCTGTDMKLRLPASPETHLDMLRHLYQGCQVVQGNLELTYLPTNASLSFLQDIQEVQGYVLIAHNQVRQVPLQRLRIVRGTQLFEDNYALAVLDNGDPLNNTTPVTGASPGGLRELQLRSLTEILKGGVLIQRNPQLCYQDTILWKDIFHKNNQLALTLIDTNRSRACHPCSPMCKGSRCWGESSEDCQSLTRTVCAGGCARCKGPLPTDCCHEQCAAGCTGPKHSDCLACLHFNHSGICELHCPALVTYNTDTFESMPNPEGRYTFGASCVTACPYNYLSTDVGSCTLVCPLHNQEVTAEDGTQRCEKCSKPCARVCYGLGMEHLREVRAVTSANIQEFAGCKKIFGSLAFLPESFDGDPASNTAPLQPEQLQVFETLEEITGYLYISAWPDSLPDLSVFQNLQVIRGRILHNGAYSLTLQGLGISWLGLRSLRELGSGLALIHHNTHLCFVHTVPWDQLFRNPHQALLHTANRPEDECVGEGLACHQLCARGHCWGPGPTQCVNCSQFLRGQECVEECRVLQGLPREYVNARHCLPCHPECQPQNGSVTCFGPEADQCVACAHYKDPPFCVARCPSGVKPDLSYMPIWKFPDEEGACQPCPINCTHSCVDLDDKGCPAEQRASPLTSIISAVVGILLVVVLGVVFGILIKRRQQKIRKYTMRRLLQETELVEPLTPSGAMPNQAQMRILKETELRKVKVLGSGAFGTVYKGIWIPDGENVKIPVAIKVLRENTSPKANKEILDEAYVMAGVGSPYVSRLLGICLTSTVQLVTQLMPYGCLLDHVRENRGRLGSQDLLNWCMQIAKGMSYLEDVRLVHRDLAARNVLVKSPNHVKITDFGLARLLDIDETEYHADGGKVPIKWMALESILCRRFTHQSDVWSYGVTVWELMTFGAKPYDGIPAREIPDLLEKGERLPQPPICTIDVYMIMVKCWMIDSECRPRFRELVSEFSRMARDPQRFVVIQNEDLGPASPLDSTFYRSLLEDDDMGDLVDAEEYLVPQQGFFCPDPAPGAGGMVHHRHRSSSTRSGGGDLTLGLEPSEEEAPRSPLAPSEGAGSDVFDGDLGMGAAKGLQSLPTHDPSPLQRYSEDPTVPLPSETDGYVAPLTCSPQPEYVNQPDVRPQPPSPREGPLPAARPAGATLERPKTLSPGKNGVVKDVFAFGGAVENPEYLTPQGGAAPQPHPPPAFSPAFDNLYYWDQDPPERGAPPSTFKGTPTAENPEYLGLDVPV
Receptor tyrosine-protein kinase erbB-2 (Homo sapiens, UniProt P04626, D769Y), sequence (P04626 23-1255 D769Y limits assumed): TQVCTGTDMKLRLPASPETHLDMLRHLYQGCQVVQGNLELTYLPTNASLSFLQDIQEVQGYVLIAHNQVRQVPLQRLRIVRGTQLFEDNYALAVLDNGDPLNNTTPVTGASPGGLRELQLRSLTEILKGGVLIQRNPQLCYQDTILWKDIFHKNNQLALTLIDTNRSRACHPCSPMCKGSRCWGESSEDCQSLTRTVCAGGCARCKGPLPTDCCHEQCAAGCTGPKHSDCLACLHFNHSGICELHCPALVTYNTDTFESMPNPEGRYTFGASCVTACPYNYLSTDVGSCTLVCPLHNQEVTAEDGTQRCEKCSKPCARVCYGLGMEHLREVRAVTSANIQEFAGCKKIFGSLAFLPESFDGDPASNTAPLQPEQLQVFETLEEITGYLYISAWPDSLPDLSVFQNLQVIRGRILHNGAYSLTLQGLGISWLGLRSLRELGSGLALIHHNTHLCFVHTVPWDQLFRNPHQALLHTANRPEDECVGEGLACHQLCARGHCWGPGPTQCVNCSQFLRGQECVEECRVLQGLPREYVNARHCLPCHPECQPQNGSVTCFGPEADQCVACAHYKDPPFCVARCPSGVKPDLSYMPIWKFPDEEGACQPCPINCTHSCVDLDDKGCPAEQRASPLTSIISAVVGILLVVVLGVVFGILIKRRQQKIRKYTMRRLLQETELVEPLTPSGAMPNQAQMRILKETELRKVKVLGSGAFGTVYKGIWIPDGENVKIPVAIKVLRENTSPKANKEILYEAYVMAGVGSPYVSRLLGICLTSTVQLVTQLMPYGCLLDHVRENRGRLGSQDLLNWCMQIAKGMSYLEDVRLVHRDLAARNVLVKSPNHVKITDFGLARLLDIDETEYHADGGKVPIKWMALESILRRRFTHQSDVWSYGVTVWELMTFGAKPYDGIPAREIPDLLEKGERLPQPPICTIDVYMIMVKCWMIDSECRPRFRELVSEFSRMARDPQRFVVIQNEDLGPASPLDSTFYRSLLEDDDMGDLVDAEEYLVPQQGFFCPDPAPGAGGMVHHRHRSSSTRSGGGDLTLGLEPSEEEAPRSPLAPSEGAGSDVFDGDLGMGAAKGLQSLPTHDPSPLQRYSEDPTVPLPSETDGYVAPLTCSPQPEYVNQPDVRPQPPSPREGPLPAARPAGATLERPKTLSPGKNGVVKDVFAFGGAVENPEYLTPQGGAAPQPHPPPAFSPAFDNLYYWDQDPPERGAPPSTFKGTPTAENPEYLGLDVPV
Receptor tyrosine-protein kinase erbB-2 (Homo sapiens, UniProt P04626, V777L), sequence (P04626 23-1255 V777L limits assumed): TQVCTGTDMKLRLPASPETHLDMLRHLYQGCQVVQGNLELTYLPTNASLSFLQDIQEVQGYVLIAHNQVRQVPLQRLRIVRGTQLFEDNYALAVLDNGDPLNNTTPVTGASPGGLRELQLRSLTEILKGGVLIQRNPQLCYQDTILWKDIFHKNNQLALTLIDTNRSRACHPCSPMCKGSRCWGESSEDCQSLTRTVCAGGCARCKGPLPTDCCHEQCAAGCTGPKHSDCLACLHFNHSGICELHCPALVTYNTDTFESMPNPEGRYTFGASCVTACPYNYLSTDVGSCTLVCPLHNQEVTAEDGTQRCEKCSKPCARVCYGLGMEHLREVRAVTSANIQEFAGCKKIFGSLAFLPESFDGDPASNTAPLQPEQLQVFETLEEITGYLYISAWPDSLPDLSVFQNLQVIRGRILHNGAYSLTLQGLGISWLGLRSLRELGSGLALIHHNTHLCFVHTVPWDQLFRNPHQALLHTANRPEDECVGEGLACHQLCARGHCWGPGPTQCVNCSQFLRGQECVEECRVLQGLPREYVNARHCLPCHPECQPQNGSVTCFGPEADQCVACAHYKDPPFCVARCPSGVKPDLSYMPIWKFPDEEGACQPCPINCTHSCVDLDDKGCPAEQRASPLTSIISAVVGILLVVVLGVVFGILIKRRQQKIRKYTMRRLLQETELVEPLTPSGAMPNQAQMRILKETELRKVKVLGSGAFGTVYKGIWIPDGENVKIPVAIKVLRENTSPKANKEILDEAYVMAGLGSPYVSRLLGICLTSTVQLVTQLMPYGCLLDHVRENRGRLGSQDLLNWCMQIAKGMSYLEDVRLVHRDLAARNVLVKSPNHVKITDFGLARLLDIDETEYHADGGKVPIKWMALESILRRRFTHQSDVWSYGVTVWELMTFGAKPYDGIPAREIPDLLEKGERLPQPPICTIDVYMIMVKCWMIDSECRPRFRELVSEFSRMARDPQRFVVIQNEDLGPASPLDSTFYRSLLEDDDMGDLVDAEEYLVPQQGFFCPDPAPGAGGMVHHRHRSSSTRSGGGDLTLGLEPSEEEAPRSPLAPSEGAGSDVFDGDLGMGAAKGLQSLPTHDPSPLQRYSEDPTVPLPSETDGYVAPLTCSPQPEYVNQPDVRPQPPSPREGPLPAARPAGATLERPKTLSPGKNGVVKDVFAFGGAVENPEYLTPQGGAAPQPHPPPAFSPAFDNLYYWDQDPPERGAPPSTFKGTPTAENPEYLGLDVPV

Q: For `CCOc1cc2ncnc(Nc3ccc(Oc4cc5nncn5cn4)c(C)c3)c2cc1NC(=O)/C(F)=C/[C@H]1CCCN1C`, which IC50 [1] is on record?
A: 0.56 nM

Q: And the AUC(0-t) at 24 h [2]?
A: 10400 ng·h/mL

Q: And the Tmax [3]?
A: 2.67 h

Q: What about the IC50 [4] of the same compound?
A: 4.26 µM

Q: What about the T/C [5] of the same compound?
A: 8.31%

Q: And the T/C [6]?
A: 16.66%

Q: What about the Vd [7] of the same compound?
A: 2.96 L/kg

Q: What about the T/C [8] of the same compound?
A: 2.6%

Q: And the T/C [9]?
A: 17.68%

Q: And the IC50 [10]?
A: 2.01 nM

Q: And the microsomal CLint at 1 µM [11]?
A: 2.5 µL/min/mg

Q: And the IC50 [12]?
A: 6.3 nM

Q: What about the IC50 [13] of the same compound?
A: 2720 nM

Q: What about the bioavailability [14] of the same compound?
A: 43.4%

Q: And the IC50 [15]?
A: 2980 nM

Q: And the inhibition in vivo at 10 mg/kg/day [16]?
A: 95%

Q: And the IC50 [17]?
A: 0.43 nM

Q: What about the IC50 [18] of the same compound?
A: 20.1 nM

Q: What about the T/C [19] of the same compound?
A: 6.89%

Q: And the clearance [20]?
A: 11.7 mL/min/kg

Q: And the IC50 [21]?
A: 6.07 µM

Q: What about the IC50 [22] of the same compound?
A: 1220 nM

Q: What about the bioavailability [23] of the same compound?
A: 71.3%

Q: And the inhibition in vivo at 20 mg/kg/day [24]?
A: 123%

Q: What about the half-life [25] of the same compound?
A: 263 min

Q: And the IC50 [26]?
A: 0.16 nM

Q: What about the T/C [27] of the same compound?
A: 2.03%

Q: And the T/C [28]?
A: 7.68%
